PMC11048566, “The Development of a Regulator of Human Serine Racemase for N-Methyl-D-aspartate Function” (Biomedicines, 2024)

Key:
[1] = molecular target: D-amino acid oxidase (DAAO) (Homo sapiens, UniProt P14920); experiment: DAAO enzymatic assay; assay type: biochemical; conditions: 5 mM D-serine, pH 8.5
Experimental: A reaction mixture for the DAAO assay, with a final volume of 100 µL was made with 1 µL 2 times serially diluted α12G (4 µM to 7.8 nM), 45 µM FAD, 10 units of HRP, 60 ng DAAO, 10 mM Amplex Red^TM, 5 mM D-serine, and 100 mM Tris HCl (pH = 8.5). All reactions were performed in duplicates. The fluorescence was detected by a fluorometric meter (TECAN Infinite 200). The racemization percentage was calculated as follows: activity % = (Fsample, 20 min − Fsample, 0 min)/(Fblank, 20 min − Fblank, 0 min) × 100%.

hSR = molecular target: T1, hSR (Homo sapiens, UniProt Q9GZT4); experiment: Intrinsic tryptophan fluorescence (ITF) binding assay; conditions: 0.25 mM ATP, Hill slope model
T1 construct: 6xHis (C); made in house; host or cells: E. coli BL21 (pET42b-hSR)
T1 sequence (Q9GZT4 1-340): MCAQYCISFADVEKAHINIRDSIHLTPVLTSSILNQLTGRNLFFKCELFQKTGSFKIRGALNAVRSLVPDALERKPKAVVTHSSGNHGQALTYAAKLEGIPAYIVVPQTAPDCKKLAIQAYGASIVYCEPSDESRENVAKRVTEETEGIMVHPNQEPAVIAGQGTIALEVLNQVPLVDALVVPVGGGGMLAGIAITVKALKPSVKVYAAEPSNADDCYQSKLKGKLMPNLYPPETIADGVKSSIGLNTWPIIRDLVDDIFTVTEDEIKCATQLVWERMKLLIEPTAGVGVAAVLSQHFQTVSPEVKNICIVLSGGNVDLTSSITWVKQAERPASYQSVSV
Experimental: First, 30 µL of 2 µM hSR protein was added into 270 µL buffer (100 mM Tris-HCl, pH 8.0, 1 mM MgCl2, 0.25 mM ATP, 50 µM PLP, 10% DMSO) with ligand and subsequently reacted for 20 min at room temperature. All samples were measured in triplicates and excited at 282 nm. The emission spectra were measured with a 5 nm bandwidth resolution at 300 to 400 nm wavelengths by a Varioskan™ LUX multimode microplate reader (Thermo Fisher Scientific, Lagoas Park, Porto Salvo, Portugal). The fluorescence intensity collected at 304 nm was analyzed using GraphPad Prism 8 software (Dotmatics, Boston, MA, USA). The dissociation constant (Kd) was derived by specific binding with the Hill slope model: Y = Bmax × X^n/(Kd^n + X^n), with X being the ligand concentration, maximum number of binding sites (Bmax) being the maximum specific binding, and n being Hill slope.
The Hill coefficient (n) of 1.28 is close to n = 1, indicating a noncooperative binding.

[2] = tested on: MK-801-induced hyperactivity; experiment: Open field test in MK-801-treated mice; assay type: in vivo, C57BL/6J male mice; conditions: oral gavage 20 min before 0.2 mg/kg MK-801 IP; p < 0.001, n = 8
Experimental: For behavioral studies, α12G was dissolved in 35% PEG-400 and administrated by oral gavage 20 min prior to the MK-801 insult. MK-801 (Sigma-Aldrich, St. Louis, MO, USA) was administrated via intraperitoneal (IP) injection 20 min prior to the behavioral tests, with the dosage of 0.2 mg/kg for the open field test and novel object recognition test and 0.3 mg/kg for the prepulse inhibition test.
C57BL/6J male mice were randomly assigned into six groups, 7–12 mice per group, (1) saline control, (2) MK-801, (3) 1 mg/kg α12G + MK-801, (4) 3 mg/kg α12G + MK-801, (5) 10 mg/kg α12G + MK-801, and (6) 30 mg/kg α12G + MK-801. The mice were placed in a Plexiglas cage (37.5 × 21.5 × 18 cm), and their spontaneous locomotor activities were measured for 60 min using a Photobeam Activity System (PAS) open field (San Diego Instruments, San Diego, CA, USA). The total photo beam breaks of each mouse were measured as an index of locomotor activity.

Sequence of D-amino acid oxidase (DAAO) (P14920 whole entry, species assumed): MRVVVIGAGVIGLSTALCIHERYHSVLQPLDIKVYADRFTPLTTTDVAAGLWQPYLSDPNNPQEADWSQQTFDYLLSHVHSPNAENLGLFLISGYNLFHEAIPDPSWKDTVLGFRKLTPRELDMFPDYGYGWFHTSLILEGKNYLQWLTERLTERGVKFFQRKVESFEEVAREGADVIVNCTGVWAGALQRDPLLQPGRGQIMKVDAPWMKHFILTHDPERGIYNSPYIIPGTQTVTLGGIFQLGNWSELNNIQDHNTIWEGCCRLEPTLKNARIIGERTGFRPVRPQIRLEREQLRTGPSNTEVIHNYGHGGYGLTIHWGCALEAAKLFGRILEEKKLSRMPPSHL

With `O=C(Oc1cc(C(=O)Oc2cc(C(=O)O[C@H]3OC[C@@H](OC(=O)c4cc(O)c(O)c(OC(=O)c5cc(O)c(O)c(OC(=O)c6cc(O)c(O)c(O)c6)c5)c4)[C@H](OC(=O)c4cc(O)c(O)c(OC(=O)c5cc(O)c(O)c(OC(=O)c6cc(O)c(O)c(O)c6)c5)c4)[C@H]3OC(=O)c3cc(O)c(O)c(OC(=O)c4cc(O)c(O)c(OC(=O)c5cc(O)c(O)c(O)c5)c4)c3)cc(O)c2O)cc(O)c1O)c1cc(O)c(O)c(O)c1` [α12G, (2R,3R,4S,5R)-tetrahydro-2H-pyran-2,3,4,5-tetrayl tetrakis(3-((3,4-dihydroxy-5-((3,4,5-trihydroxybenzoyl)oxy)benzoyl)ox)-4,5-dihydroxybenzoate)] the IC50 [1] was 160 nM, the Bmax (hSR) was 96.86 fmol/mg and the Kd (hSR; read-out: binding affinity (Kd)) was 240 nM. The “Effect on MK-801-induced hyperactivity (locomotor activity)” value [2] was “alleviated the MK-801-induced hyperactivity”.
